{"source": "patent US20010053796A1", "about": "“Delta-aminolevulinic acid for prevention and treatment of infection microorganisms and parasite” (priority 2000, published 2001)", "key": {"Scutica": {"tested_on": "Scutica", "experiment": "Extinction effect for Scutica in vitro", "assay_type": "cell-based", "description": "Scutica used in this experiment was taken from epidermal mucus of infected flatfish and suspended in HBSS. The suspension was kept at room temperature for 30 min and centrifuged at 800 rpm for 10 min. The supernatant was removed. The pellet was suspended in MEM-10 (minimum essential medium, 10% FBS, streptomycine, penicilin) and kept for 30 min, and then centrifuged in the same manner as above. The supernatant was removed and left imagoes was gained and made into imagoes suspension with certain number of imagoes by counting with the blood counting machine. The imagoes suspension was subcultured in vitro and inoculated to prepared FHM cell of certain number (2.5×10^5 cells/mL) and then cultured at 17° C. Before carrying out the experiment, by measuring the extinction effect for Scutica according to the concentration of δ-aminolevulinic acid and reaction time, optimum δ-aminolevulinic acid concentration and treatment time was examined for Scutica extermination. The Scutica culture solution cultured in FHM cell line was centrifuged at 3000 rpm for 5 min. The supernatant was removed and was added to PBS. It was washed 3 times to use for the experiment. 1.0 M δ-aminolevulinic acid solution made from sterilized 3rd distilled water was diluted by 2-fold up to 1000-fold (1.0 mM). Scutica was added to each well of 96-well microplate at an amount of 50 μL. Then, δ-aminolevulinic acid solution diluted by 2 steps were added and cultured for 120 min while the viability of Scutica was monitored. During the culture for 120 min, extinction time was measured in 10 min intervals, at each concentration. Between each inoculation, they were stirred for 5 min and were kept for 5 min. after reaction, 1% trypan blue which is staining solution for organism was added to each wells at an amount of 100 μL and mixed. In cultured Scutica with the diluted solution of δ-aminolevulinic acid, the number of parasites was counted by the blood counting machine, according to time. […] Through the 60 min-treatment, more than 50% of Scutica were extinct. At the actual concentration of 2 mM, about 50% of Scutica was extinct through 1 hour-treatment."}, "Staphylococcus sp.": {"tested_on": "Staphylococcus sp.", "experiment": "Treatment effect of infected fry by oral administration in feed", "assay_type": "in vivo, Bastardhalibut", "details": "50 fish", "description": "In this example, fry of Bastardhalibut and Sebastes schlegeli (mean body weight 2 g), 50 per each breeding tank, were preliminary-bred for 1 week and stabilized. […] The artificial infection methods were carried out through the digestion method. Pathogenic organisms were applied into fish tanks and introduced into seawater for an hour, wherein the concentration of organisms adjusted to 10^4 CFU/mL. Treatment conditions are as follows; after artificial infection, infected fish were moved to fish tanks and kept in the infection period for 3 days. […] The fish were bred for 2 weeks after exchanging with clean seawater and the mortality of fish according to infection was monitored. In the control groups, after each bacteria were identically infected through digestion method, mortality of Bastardhalibut and Sebastes schlegeli according to bacteria infection was identified while breeding with marketing assorted feed without δ-aminolevulinic acid. As a result of this experiment, δ-aminolevulinic acid-treated groups have shown high viability in both Bastardhalibut (Table 20˜Table 23) and Sebastes schlegeli (Table 24˜Table 27)."}}, "note": "Where two headings read alike, the source gives them in different places."}
{"smiles": "NCC(=O)CCC(=O)O", "note": "[δ-aminolevulinic acid]", "values": [{"measurement": "viability at 30000 µM", "setting": "Scutica; read-out: Viability (%) of Scutica, 30 mM, reaction time 50", "value": 0, "unit": "%"}, {"measurement": "viability at 30000 µM", "setting": "Scutica; read-out: Viability (%) of Scutica, 30 mM, reaction time 60", "value": 0, "unit": "%"}, {"measurement": "viability at 30000 µM", "setting": "Scutica; read-out: Viability (%) of Scutica, 30 mM, reaction time 70", "value": 0, "unit": "%"}, {"measurement": "viability at 30000 µM", "setting": "Scutica; read-out: Viability (%) of Scutica, 30 mM, reaction time 80", "value": 0, "unit": "%"}, {"measurement": "viability at 30000 µM", "setting": "Scutica; read-out: Viability (%) of Scutica, 30 mM, reaction time 90", "value": 0, "unit": "%"}, {"measurement": "viability at 30000 µM", "setting": "Scutica; read-out: Viability (%) of Scutica, 30 mM, reaction time 110", "value": 0, "unit": "%"}, {"measurement": "viability at 30000 µM", "setting": "Scutica; read-out: Viability (%) of Scutica, 30 mM, reaction time 120", "value": 0, "unit": "%"}, {"measurement": "viability at 60000 µM", "setting": "Scutica; read-out: Viability (%) of Scutica, 60 mM, reaction time 10", "value": 0, "unit": "%"}, {"measurement": "viability at 60000 µM", "setting": "Scutica; read-out: Viability (%) of Scutica, 60 mM, reaction time 20", "value": 0, "unit": "%"}, {"measurement": "viability at 60000 µM", "setting": "Scutica; read-out: Viability (%) of Scutica, 60 mM, reaction time 30", "value": 0, "unit": "%"}, {"measurement": "viability at 60000 µM", "setting": "Scutica; read-out: Viability (%) of Scutica, 60 mM, reaction time 40", "value": 0, "unit": "%"}, {"measurement": "viability at 60000 µM", "setting": "Scutica; read-out: Viability (%) of Scutica, 60 mM, reaction time 50", "value": 0, "unit": "%"}, {"measurement": "viability at 60000 µM", "setting": "Scutica; read-out: Viability (%) of Scutica, 60 mM, reaction time 60", "value": 0, "unit": "%"}, {"measurement": "viability at 60000 µM", "setting": "Scutica; read-out: Viability (%) of Scutica, 60 mM, reaction time 70", "value": 0, "unit": "%"}, {"measurement": "viability at 60000 µM", "setting": "Scutica; read-out: Viability (%) of Scutica, 60 mM, reaction time 80", "value": 0, "unit": "%"}, {"measurement": "viability at 60000 µM", "setting": "Scutica; read-out: Viability (%) of Scutica, 60 mM, reaction time 90", "value": 0, "unit": "%"}, {"measurement": "viability at 60000 µM", "setting": "Scutica; read-out: Viability (%) of Scutica, 60 mM, reaction time 110", "value": 0, "unit": "%"}, {"measurement": "viability at 60000 µM", "setting": "Scutica; read-out: Viability (%) of Scutica, 60 mM, reaction time 120", "value": 0, "unit": "%"}, {"measurement": "viability at 125000 µM", "setting": "Scutica; read-out: Viability (%) of Scutica, 125 mM, reaction time 10", "value": 0, "unit": "%"}, {"measurement": "viability at 125000 µM", "setting": "Scutica; read-out: Viability (%) of Scutica, 125 mM, reaction time 20", "value": 0, "unit": "%"}, {"measurement": "viability at 125000 µM", "setting": "Scutica; read-out: Viability (%) of Scutica, 125 mM, reaction time 30", "value": 0, "unit": "%"}, {"measurement": "viability at 125000 µM", "setting": "Scutica; read-out: Viability (%) of Scutica, 125 mM, reaction time 40", "value": 0, "unit": "%"}, {"measurement": "viability at 125000 µM", "setting": "Scutica; read-out: Viability (%) of Scutica, 125 mM, reaction time 50", "value": 0, "unit": "%"}, {"measurement": "viability at 125000 µM", "setting": "Scutica; read-out: Viability (%) of Scutica, 125 mM, reaction time 60", "value": 0, "unit": "%"}, {"measurement": "viability at 125000 µM", "setting": "Scutica; read-out: Viability (%) of Scutica, 125 mM, reaction time 70", "value": 0, "unit": "%"}, {"measurement": "viability at 125000 µM", "setting": "Scutica; read-out: Viability (%) of Scutica, 125 mM, reaction time 80", "value": 0, "unit": "%"}, {"measurement": "viability at 125000 µM", "setting": "Scutica; read-out: Viability (%) of Scutica, 125 mM, reaction time 90", "value": 0, "unit": "%"}, {"measurement": "viability at 125000 µM", "setting": "Scutica; read-out: Viability (%) of Scutica, 125 mM, reaction time 110", "value": 0, "unit": "%"}, {"measurement": "viability at 125000 µM", "setting": "Scutica; read-out: Viability (%) of Scutica, 125 mM, reaction time 120", "value": 0, "unit": "%"}, {"measurement": "viability at 250000 µM", "setting": "Scutica; read-out: Viability (%) of Scutica, 250 mM, reaction time 10", "value": 0, "unit": "%"}, {"measurement": "viability at 250000 µM", "setting": "Scutica; read-out: Viability (%) of Scutica, 250 mM, reaction time 20", "value": 0, "unit": "%"}, {"measurement": "viability at 250000 µM", "setting": "Scutica; read-out: Viability (%) of Scutica, 250 mM, reaction time 30", "value": 0, "unit": "%"}, {"measurement": "viability at 250000 µM", "setting": "Scutica; read-out: Viability (%) of Scutica, 250 mM, reaction time 40", "value": 0, "unit": "%"}, {"measurement": "viability at 250000 µM", "setting": "Scutica; read-out: Viability (%) of Scutica, 250 mM, reaction time 50", "value": 0, "unit": "%"}, {"measurement": "viability at 250000 µM", "setting": "Scutica; read-out: Viability (%) of Scutica, 250 mM, reaction time 60", "value": 0, "unit": "%"}, {"measurement": "viability at 250000 µM", "setting": "Scutica; read-out: Viability (%) of Scutica, 250 mM, reaction time 70", "value": 0, "unit": "%"}, {"measurement": "viability at 250000 µM", "setting": "Scutica; read-out: Viability (%) of Scutica, 250 mM, reaction time 80", "value": 0, "unit": "%"}, {"measurement": "viability at 250000 µM", "setting": "Scutica; read-out: Viability (%) of Scutica, 250 mM, reaction time 90", "value": 0, "unit": "%"}, {"measurement": "viability at 250000 µM", "setting": "Scutica; read-out: Viability (%) of Scutica, 250 mM, reaction time 110", "value": 0, "unit": "%"}, {"measurement": "viability at 250000 µM", "setting": "Scutica; read-out: Viability (%) of Scutica, 250 mM, reaction time 120", "value": 0, "unit": "%"}, {"measurement": "viability at 500000 µM", "setting": "Scutica; read-out: Viability (%) of Scutica, 500 mM, reaction time 10", "value": 0, "unit": "%"}, {"measurement": "viability at 500000 µM", "setting": "Scutica; read-out: Viability (%) of Scutica, 500 mM, reaction time 20", "value": 0, "unit": "%"}, {"measurement": "viability at 500000 µM", "setting": "Scutica; read-out: Viability (%) of Scutica, 500 mM, reaction time 30", "value": 0, "unit": "%"}, {"measurement": "viability at 500000 µM", "setting": "Scutica; read-out: Viability (%) of Scutica, 500 mM, reaction time 40", "value": 0, "unit": "%"}, {"measurement": "viability at 500000 µM", "setting": "Scutica; read-out: Viability (%) of Scutica, 500 mM, reaction time 50", "value": 0, "unit": "%"}, {"measurement": "viability at 500000 µM", "setting": "Scutica; read-out: Viability (%) of Scutica, 500 mM, reaction time 60", "value": 0, "unit": "%"}, {"measurement": "viability at 500000 µM", "setting": "Scutica; read-out: Viability (%) of Scutica, 500 mM, reaction time 70", "value": 0, "unit": "%"}, {"measurement": "viability at 500000 µM", "setting": "Scutica; read-out: Viability (%) of Scutica, 500 mM, reaction time 80", "value": 0, "unit": "%"}, {"measurement": "viability at 500000 µM", "setting": "Scutica; read-out: Viability (%) of Scutica, 500 mM, reaction time 90", "value": 0, "unit": "%"}, {"measurement": "viability at 500000 µM", "setting": "Scutica; read-out: Viability (%) of Scutica, 500 mM, reaction time 110", "value": 0, "unit": "%"}, {"measurement": "viability at 500000 µM", "setting": "Scutica; read-out: Viability (%) of Scutica, 500 mM, reaction time 120", "value": 0, "unit": "%"}, {"measurement": "Viability", "setting": "Staphylococcus sp.; feed 0.1 ppm from 4th day of infection", "value": 42, "unit": "%"}, {"measurement": "Viability", "setting": "Staphylococcus sp.; feed 1.0 ppm from 4th day of infection", "value": 72, "unit": "%"}, {"measurement": "Viability", "setting": "Staphylococcus sp.; feed 50 ppm from 4th day of infection", "value": 92, "unit": "%"}, {"measurement": "Viability", "setting": "Staphylococcus sp.; feed 100 ppm from 4th day of infection", "value": 86, "unit": "%"}]}
